# Experimental data: patent US20250136559A1, “SMO MODULATOR COMPOUNDS” (OMASS THERAPEUTICS LIMITED, priority 2022, published 2025)
# Experiments:
# Format in all cases: cell-based
# mouse SMO^D473H = biological target: T1, mouse SMO^D473H (Mus musculus, UniProt P56726, D477H); test: Mouse assay: Gli1 qPCR in MEF cells stably expressing mouse SMO D473H; conditions: mSHh-treated, 24 hours; for IC50: Gli1 inhibition by qPCR, read-out: Mouse D473H pIC50 (converted); for Mouse D473H % Inh: percentage Gli1 inhibition
# T1 construct: expressed in transfected cells
# Description: (§1) Cell culture. All materials were purchased from Sigma-Aldrich, unless otherwise stated.
# (§2) Compound treatment. […] After 1 hour incubation, cells were treated with assay medium containing mSHh prepared at 2.5× of final assay concentrations specified in the text and incubated for a further 24 hours at 37′C in a humidified 95% air/5% CO2 atmosphere prior to qPCR analysis.
# (§3) Cell lysis and one-step qPCR. The Cells-to-CT™ 1-Step TaqMan® Kit was used in conjunction with TaqMan primer-probe assays for the detection of Gli1 (FAM, Mm00494654_m1) and Gusb (VIC, Mm01197698_m1) genes (all purchased from Life Technologies). Following 24 hours cell treatment, spent medium was removed and cells were washed with PBS before the application of lysis and stop solution as per manufacturer's instructions. The qPCR reactions were run in a 384-well PCR plate using master mix prepared according to manufacturer's instructions and cell lysate samples from treatment wells. Real-time PCR amplification was detected using the Bio-Rad CFX384 Touch PCR system. Four experimental replicates (two cell replicates and two qPCR replicates) were performed for each compound concentration tested. Real-time data were analysed using the CFX Maestro software (Bio-Rad) and obtained expression values were converted to percentage Gli1 inhibition by normalising to the average Gli1 expression of mSHh-treated control samples.
# mouse SMO^W535L = biological target: T2, mouse SMO^W535L (Mus musculus, UniProt P56726, W539L); test: Mouse assay: Gli1 qPCR in MEF cells stably expressing mouse SMO W535L; conditions: mSHh-treated, 24 hours; for IC50: Gli1 inhibition by qPCR, read-out: Mouse W535L pIC50 (converted); for Mouse W535L % Inh: percentage Gli1 inhibition
# T2 construct: expressed in transfected cells
# Description: as §1, §2, §3
# mouse SMO^WT = biological target: T3, mouse SMO^WT (Mus musculus, UniProt P56726); test: Mouse assay: Gli1 qPCR in MEF cells stably expressing mouse SMO WT; conditions: mSHh-treated, 24 hours; for IC50: Gli1 inhibition by qPCR, read-out: Mouse WT pIC50 (converted); for Mouse WT % Inh: percentage Gli1 inhibition
# T3 construct: expressed in transfected cells
# Description: as §1, §2, §3
# T1 sequence (P56726 33-793 D477H): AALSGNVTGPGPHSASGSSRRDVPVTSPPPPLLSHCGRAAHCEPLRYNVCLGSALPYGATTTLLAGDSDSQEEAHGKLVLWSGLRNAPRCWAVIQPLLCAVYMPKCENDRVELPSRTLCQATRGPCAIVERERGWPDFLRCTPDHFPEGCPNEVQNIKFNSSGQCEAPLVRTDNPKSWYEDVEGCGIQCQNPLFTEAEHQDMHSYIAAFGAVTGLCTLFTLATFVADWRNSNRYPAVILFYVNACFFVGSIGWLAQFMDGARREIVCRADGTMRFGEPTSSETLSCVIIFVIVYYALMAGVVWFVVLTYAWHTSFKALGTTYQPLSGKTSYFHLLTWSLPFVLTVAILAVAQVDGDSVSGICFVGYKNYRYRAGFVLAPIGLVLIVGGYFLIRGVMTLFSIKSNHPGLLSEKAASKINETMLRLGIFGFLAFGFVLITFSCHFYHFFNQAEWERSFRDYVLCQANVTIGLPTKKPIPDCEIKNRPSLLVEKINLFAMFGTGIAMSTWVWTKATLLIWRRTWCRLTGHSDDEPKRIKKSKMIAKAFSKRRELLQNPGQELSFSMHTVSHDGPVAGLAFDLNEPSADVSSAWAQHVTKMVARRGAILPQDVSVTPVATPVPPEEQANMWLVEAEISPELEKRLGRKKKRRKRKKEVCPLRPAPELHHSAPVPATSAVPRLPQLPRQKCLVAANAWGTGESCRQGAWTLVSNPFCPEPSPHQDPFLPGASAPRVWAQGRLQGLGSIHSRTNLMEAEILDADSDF
# T3 sequence (P56726 33-793): as the sequence (P56726 33-793 D477H) above, with H445D counted along it
# T2 sequence (P56726 33-793 W539L): as the sequence (P56726 33-793 D477H) above, with H445D, W507L counted along it
SMILES,IC50 (mouse SMO^D473H) [nM],Mouse D473H % Inh (mouse SMO^D473H) [%],IC50 (mouse SMO^W535L) [nM],Mouse W535L % Inh (mouse SMO^W535L) [%],IC50 (mouse SMO^WT) [nM],Mouse WT % Inh (mouse SMO^WT) [%]
"O=C(Nc1ccc(-c2nc(-c3ccc(C(F)(F)F)s3)n[nH]2)cc1)c1cccc(CN2CCS(=O)(=O)CC2)c1 [Example 3-16, 3-[(1,1-Dioxo-1,4-thiazinan-4-yl)methyl]-N-[4-[3-[5-(trifluoromethyl)thiophen-2-yl]-1H-1,2,4-triazol-5-yl]phenyl]benzamide]",794,93.9,794,58.5,100,99.4
"O=C(Nc1ccc(-c2nc(C3CCCCC3)n[nH]2)cc1)c1cccc(CN2CCS(=O)(=O)CC2)c1 [Example 3-6, N-[4-(3-Cyclohexyl-1H-1,2,4-triazol-5-yl)phenyl]-3-[(1,1-dioxo-1,4-thiazinan-4-yl)methyl]benzamide]",200,98.4,79.4,51.7,31.6,98.4
"Cc1cc(Cc2n[nH]c(-c3ccc(NC(=O)c4cccc(CN5CCS(=O)(=O)CC5)c4)cc3)n2)ccc1Br [Example 3-27, N-[4-[5-[(4-Bromo-3-methylphenyl)methyl]-1H-1,2,4-triazol-3-yl]phenyl]-3-[(1,1-dioxo-1,4-thiazinan-4-yl)methyl]benzamide]",631,97.0,158,57.3,15.8,99.3
"O=C(Nc1ccc(-c2nc(-c3cccc(Oc4nccs4)c3)n[nH]2)cc1)c1cccc(CN2CCS(=O)(=O)CC2)c1 [Example 3-13, 3-[(1,1-Dioxo-1,4-thiazinan-4-yl)methyl]-N-[4-[3-[3-(1,3-thiazol-2-yloxy)phenyl]-1H-1,2,4-triazol-5-yl]phenyl]benzamide]",631,78.5,> 3310,76.7,79.4,97.4
"COc1ccc(-c2n[nH]c(-c3ccc(NC(=O)c4cccc(CN5CCS(=O)(=O)CC5)c4)cc3)n2)cc1 [Example 3-12, 3-[(1,1-Dioxo-1,4-thiazinan-4-yl)methyl]-N-[4-[5-(4-methoxyphenyl)-1H-1,2,4-triazol-3-yl]phenyl]benzamide]",200,97.5,316,53.3,12.6,99.0
"CC1(C)CN(Cc2cccc(C(=O)Nc3ccc(-c4nc(C5CC5)n[nH]4)cc3)c2)CCS1(=O)=O [Example 1-3, N-[4-(3-cyclopropyl-1H-1,2,4-triazol-5-yl)phenyl]-3-[(2,2-dimethyl-1,1-dioxo-1,4-thiazinan-4-yl)methyl]benzamide]",63.1,99.7,158,62.6,20,99.4
"O=C(Nc1ccc(-c2nc(C3CC3)n[nH]2)cc1)c1cccc(CN2CCSCC2)c1 [Example 1-1, N-[4-(3-cyclopropyl-1H-1,2,4-triazol-5-yl)phenyl]-3-(thiomorpholin-4-ylmethyl)benzamide]",200,99.3,251,66.8,20,99.4

# Results, then the compound that gave them:
IC50 (mouse SMO^D473H) [nM],Mouse D473H % Inh (mouse SMO^D473H) [%],IC50 (mouse SMO^W535L) [nM],Mouse W535L % Inh (mouse SMO^W535L) [%],IC50 (mouse SMO^WT) [nM],Mouse WT % Inh (mouse SMO^WT) [%],SMILES
31.6,98.4,10,51.6,2.51,99.1,"O=C(Nc1ccc(-c2cc(C3CC3)n[nH]2)cc1)c1ccc(Cl)c(CN2CCS(=O)(=O)CC2)c1 [Example 4-20, 4-chloro-N-[4-(5-cyclopropyl-1H-pyrazol-3-yl)phenyl]-3-[(1,1-dioxo-1,4-thiazinan-4-yl)methyl]benzamide]"
200,99.1,794,74.2,10,98.2,"O=C(Nc1ccc(-c2noc(C3CCCC3)n2)cc1)c1cccc(CN2CCS(=O)(=O)CC2)c1 [Example 4-14, N-[4-(5-Cyclopentyl-1,2,4-oxadiazol-3-yl)phenyl]-3-[(1,1-dioxo-1,4-thiazinan-4-yl)methyl]benzamide]"
–,–,–,–,20,99.3,"Cc1oc(-c2ccc(NC(=O)c3ccc(Cl)c(CN4CCS(=O)(=O)CC4)c3)cn2)nc1Br [Example 5-1, N-[6-(4-bromo-5-methyl-1,3-oxazol-2-yl)pyridin-3-yl]-4-chloro-3-[(1,1-dioxo-1,4-thiazinan-4-yl)methyl]benzamide]"
100,93.2,631,61.1,31.6,97.7,"Cn1nc(-c2ccc(NC(=O)c3cccc(CN4CCS(=O)(=O)CC4)c3)nc2)cc1C1CC1 [Example 5-5, N-[5-(5-cyclopropyl-1-methylpyrazol-3-yl)pyridin-2-yl]-3-[(1,1-dioxo-1,4-thiazinan-4-yl)methyl]benzamide]"
31.6,99.4,31.6,82.0,6.31,99.0,"O=C(Nc1ccc(-c2noc(Cc3ccccc3)n2)cc1)c1cccc(CN2CCS(=O)(=O)CC2)c1 [Example 4-15, N-[4-(5-Benzyl-1,2,4-oxadiazol-3-yl)phenyl]-3-[(1,1-dioxo-1,4-thiazinan-4-yl)methyl]benzamide]"
5.01,98.6,15.8,65.7,0.398,98.3,"Cc1c(-c2ccc(NC(=O)c3cccc(CN4CCS(=O)(=O)CC4)c3)cc2)nn(C)c1C1CC1 [Example 4-25, N-[4-(5-Cyclopropyl-1,4-dimethylpyrazol-3-yl)phenyl]-3-[(1,1-dioxo-1,4-thiazinan-4-yl)methyl]benzamide]"
20,99.3,31.6,76.0,2.51,98.8,"O=C(Nc1ccc(-c2cc(C3CC3)on2)cc1)c1cccc(CN2CCS(=O)(=O)CC2)c1 [Example 4-7, N-[4-(5-Cyclopropyl-1,2-oxazol-3-yl)phenyl]-3-[(1,1-dioxo-1,4-thiazinan-4-yl)methyl]benzamide]"
63.1,99.4,39.8,76.6,6.31,99.3,"O=C(Nc1ccc(-c2cc(Cc3ccccc3)n[nH]2)cc1)c1cccc(CN2CCS(=O)(=O)CC2)c1 [Example 4-21, N-[4-(3-Benzyl-1H-pyrazol-5-yl)phenyl]-3-[(1,1-dioxo-1,4-thiazinan-4-yl)methyl]benzamide]"
158,99.5,158,63.8,50.1,99.7,"Cl.O=C(Nc1ccc(-c2nc(C3CC3)no2)cc1)c1cccc(CN2CCS(=O)(=O)CC2)c1 [Example 4-11, N-[4-(3-Cyclopropyl-1,2,4-oxadiazol-5-yl)phenyl]-3-[(1,1-dioxo-1,4-thiazinan-4-yl)methyl]benzamide]"
3.16,98.5,12.6,79.0,0.2,99.5,"Cc1oc(-c2ccc(NC(=O)c3ccc(Cl)c(CN4CCS(=O)(=O)CC4)c3)cc2)nc1C1CC1 [Example 4-4, 4-Chloro-N-[4-(4-cyclopropyl-5-methyl-1,3-oxazol-2-yl)phenyl]-3-[(1,1-dioxo-1,4-thiazinan-4-yl)methyl]benzamide]"
50.1,98.6,63.1,78.6,6.31,99.2,"Cc1nc(-c2ccc(NC(=O)c3cccc(CN4CCS(=O)(=O)CC4)c3)cc2)oc1C [Example 4-1, N-[4-(4,5-Dimethyl-1,3-oxazol-2-yl)phenyl]-3-[(1,1-dioxo-1,4-thiazinan-4-yl)methyl]benzamide]"
79.4,99.3,126,76.9,12.6,99.0,O=C(Nc1ccc(-c2cc(C3CC3)no2)cc1)c1cccc(CN2CCS(=O)(=O)CC2)c1 [Example 4-6]
–,–,–,–,63.1,98.6,"O=C(Nc1ccc(-c2cc(C3CC3)[nH]n2)nc1)c1ccc(Cl)c(CN2CCS(=O)(=O)CC2)c1 [Example 5-3, 4-Chloro-N-[6-(5-cyclopropyl-1H-pyrazol-3-yl)pyridin-3-yl]-3-[(1,1-dioxo-1,4-thiazinan-4-yl)methyl]benzamide]"
